In patent US11000033B2, “Ketone or oxime compound, and herbicide” (NISSAN CHEMICAL CORPORATION, priority 2014, dated 2021):

What was measured:
Assay type in all cases: in vivo
[1] = test system: Echinochloa oryzacola Vasing.; test: Test Example 2: herbicidal activity, application during weed generation in submerged conditions (symbol A); conditions: Table 23; application herbicide amount 320 g/ha; grade 0-5 by criteria of Test Example 1
Summary of the method: (§1)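 Submerged alluvial soil (4 cm) sown with mixed seed; greenhouse 25–30° C. 1–2 leaf: diluted emulsion onto water surface, preset dose. Visual score, 3 wk.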

Scirpus juncoides = test: Test Example 2: herbicidal activity, application during weed generation in submerged conditions (symbol B); conditions: Table 23; application herbicide amount 320 g/ha; grade 0-5 by criteria of Test Example 1
Summary of the method: as §1

[2] = test system: directly sowed rice plant; test: Test Example 3: effect on crop by foliage application, Wagner pot (symbol b); conditions: application herbicide amount 320 g/ha
Summary of the method: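 Alluvial soil in a 1/10000-are Wagner pot was flooded to a water depth of 0.1–0.5 cm. Echinochloa crus-galli var. crus-galli, Leptochloa chinensis, Cyperus difformis and rice were sown into it and grown in a greenhouse at 25–30 °C.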

Avena fatua = test: Test Example 4: herbicidal effect by soil treatment (symbol I); conditions: application herbicide amount 320 g/ha
Summary of the method: (§2)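 Seeds were sown in sterilized diluvial soil, covered with about 1.5 cm of soil, and the soil surface was sprayed with a water-diluted emulsion of the compound at a predetermined rate. Plants grew in a greenhouse at 25° C. to 30° C.; effects were scored visually 3 weeks after application.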

Lolium multiflorum Lam. = test: Test Example 4: herbicidal effect by soil treatment (symbol K); conditions: application herbicide amount 320 g/ha
Summary of the method: as §2

Apera spica-venti = test: Test Example 4: herbicidal effect by soil treatment (symbol L); conditions: application herbicide amount 320 g/ha
Summary of the method: as §2

Amaranthus retroflexus = test: Test Example 4: herbicidal effect by soil treatment (symbol N); conditions: application herbicide amount 320 g/ha
Summary of the method: as §2

soybean = test: Test Example 4: effect on crop by soil treatment (symbol d); conditions: application herbicide amount 320 g/ha
Summary of the method: (§3)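 Greenhouse culture at 25° C. to 30° C. followed sowing of seed in spots on sterilized diluvial soil with a soil cover close to 1.5 cm thick.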

rice = test: Test Example 4: effect on crop by soil treatment (symbol b); conditions: application herbicide amount 320 g/ha
Summary of the method: as §3

wheat [3] = test: Test Example 4: effect on crop by soil treatment (symbol e); conditions: application herbicide amount 320 g/ha
Summary of the method: as §3

rapeseed [4] = test: Test Example 4: effect on crop by soil treatment (symbol g); conditions: application herbicide amount 320 g/ha
Summary of the method: as §3

Abutilon theophrasti = test: Test Example 5: herbicidal effect by foliage application, plastic box (symbol M); conditions: 320 g/ha, 3 weeks after application
Summary of the method: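 Seeds were sown in sterilized diluvial soil, covered with about 1.5 cm of soil and grown 14 days in a greenhouse at 25° C. to 30° C. An emulsifiable formulation diluted in water to a set rate was sprayed over foliage, and injury was scored 3 weeks later.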

rice plant = test: Test Example 5: effect on crop by foliage application, plastic box (symbol b); conditions: 320 g/ha, 3 weeks after application
Summary of the method: (§4)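 In a plastic box 7 cm deep filled with sterilized diluvial soil, seeds of crops and weeds such as Digitaria ciliaris, Avena fatua and Amaranthus retroflexus are sown in spots and covered with about 1.5 cm of soil before greenhouse growth at 25–30° C.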

wheat [5] = test: Test Example 5: effect on crop by foliage application, plastic box (symbol e); conditions: 320 g/ha, 3 weeks after application
Summary of the method: as §4

beet = test: Test Example 5: effect on crop by foliage application, plastic box (symbol f); conditions: 320 g/ha, 3 weeks after application
Summary of the method: as §4

rapeseed [6] = test: Test Example 5: effect on crop by foliage application, plastic box (symbol g); conditions: 320 g/ha, 3 weeks after application
Summary of the method: as §4

SMILES | Herbicidal effect grade, A: Echinochloa oryzacola Vasing. [1] | Herbicidal effect grade, B: Scirpus juncoides (Scirpus juncoides) | effect on crop b (directly sowed rice plant), grade 0-5 [2] | I (Avena fatua) herbicidal effect grade (Avena fatua) | K (Lolium multiflorum Lam.) herbicidal effect grade (Lolium multiflorum Lam.) | L (Apera spica-venti) herbicidal effect grade (Apera spica-venti) | N (Amaranthus retroflexus) herbicidal effect grade (Amaranthus retroflexus) | d (soybean) effect on crop grade (soybean) | b (directly sowed rice plant) effect on crop grade (rice) | e (wheat) effect on crop grade (wheat [3]) | g (rapeseed) effect on crop grade (rapeseed [4]) | M: Abutilon theophrasti, herbicidal effect grade (Abutilon theophrasti) | b: directly sowed rice plant, effect on crop grade (rice plant) | e: wheat, effect on crop grade (wheat [5]) | f: beet, effect on crop grade (beet) | g: rapeseed, effect on crop grade (rapeseed [6]) | further results
CCc1cc(-c2ccc(Cl)cc2)cc(C)c1C1=C(OC(=O)N2CCOCC2)CC(CC(C)=NOC)C1=O (mixture of isomers) [6-064] | 4 (Herbicidal ratio of 70% or higher and lower than 90%) | 0 (Herbicidal ratio of 5% or lower (almost no effect)) | 4 (Herbicidal ratio of 70% or higher and lower than 90%) |  |  |  |  |  |  |  |  |  |  |  |  |  | I: Avena fatua, herbicidal effect grade (Avena fatua): 0 (Herbicidal ratio of 5% or lower (almost no effect)); K: Lolium multiflorum Lam., herbicidal effect grade (Lolium multiflorum Lam.): 0 (Herbicidal ratio of 5% or lower (almost no effect)); L: Apera spica-venti, herbicidal effect grade (Apera spica-venti): 5 (Herbicidal ratio of 90% or more (almost completely withered)); N: Amaranthus retroflexus, herbicidal effect grade (Amaranthus retroflexus): 0 (Herbicidal ratio of 5% or lower (almost no effect)); d: soybean, effect on crop grade (soybean): 0 (Herbicidal ratio of 5% or lower (almost no effect)); b: directly sowed rice plant, effect on crop grade (rice): 0 (Herbicidal ratio of 5% or lower (almost no effect)); e: wheat, effect on crop grade (wheat [3]): 0 (Herbicidal ratio of 5% or lower (almost no effect)); g: rapeseed, effect on crop grade (rapeseed [4]): 0 (Herbicidal ratio of 5% or lower (almost no effect)); M: Abutilon theophrasti, herbicidal effect (criteria of Test Example 1) (Abutilon theophrasti): 4 (Herbicidal ratio of 70% or higher and lower than 90%); b: directly sowed rice plant, effect on crop (criteria of Test Example 1) (rice plant): 5 (Herbicidal ratio of 90% or more (almost completely withered)); e: wheat, effect on crop (criteria of Test Example 1) (wheat [5]): 5 (Herbicidal ratio of 90% or more (almost completely withered)); f: beet, effect on crop (criteria of Test Example 1) (beet): 0 (Herbicidal ratio of 5% or lower (almost no effect)); g: rapeseed, effect on crop (criteria of Test Example 1) (rapeseed [6]): 3 (Herbicidal ratio of 40% or higher and lower than 70%)
CON=C(C)CC1CC(OC(=O)C2CC2)=C(c2c(C)cc(C)cc2C)C1=O (centres unmarked) [1-015] | 5 (Herbicidal ratio of 90% or more (almost completely withered)) | 4 (Herbicidal ratio of 70% or higher and lower than 90%) | 5 (Herbicidal ratio of 90% or more (almost completely withered)) | 5 (Herbicidal ratio of 90% or more (almost completely withered)) | 5 (Herbicidal ratio of 90% or more (almost completely withered)) | 5 (Herbicidal ratio of 90% or more (almost completely withered)) | 5 (Herbicidal ratio of 90% or more (almost completely withered)) | 3 (Herbicidal ratio of 40% or higher and lower than 70%) | 5 (Herbicidal ratio of 90% or more (almost completely withered)) | 3 (Herbicidal ratio of 40% or higher and lower than 70%) | 4 (Herbicidal ratio of 70% or higher and lower than 90%) | 4 (Herbicidal ratio of 70% or higher and lower than 90%) | 5 (Herbicidal ratio of 90% or more (almost completely withered)) | 5 (Herbicidal ratio of 90% or more (almost completely withered)) | 3 (Herbicidal ratio of 40% or higher and lower than 70%) | 4 (Herbicidal ratio of 70% or higher and lower than 90%) | 
CON=C(C)CC1CC(OC(=O)C(C)(C)CCl)=C(c2c(C)cc(C)cc2C)C1=O (centres unmarked) [1-016] | 5 (Herbicidal ratio of 90% or more (almost completely withered)) | 4 (Herbicidal ratio of 70% or higher and lower than 90%) | 5 (Herbicidal ratio of 90% or more (almost completely withered)) | 5 (Herbicidal ratio of 90% or more (almost completely withered)) | 5 (Herbicidal ratio of 90% or more (almost completely withered)) | 5 (Herbicidal ratio of 90% or more (almost completely withered)) | 5 (Herbicidal ratio of 90% or more (almost completely withered)) | 3 (Herbicidal ratio of 40% or higher and lower than 70%) | 5 (Herbicidal ratio of 90% or more (almost completely withered)) | 2 (Herbicidal ratio of 20% or higher and lower than 40%) | 4 (Herbicidal ratio of 70% or higher and lower than 90%) | 4 (Herbicidal ratio of 70% or higher and lower than 90%) | 5 (Herbicidal ratio of 90% or more (almost completely withered)) | 5 (Herbicidal ratio of 90% or more (almost completely withered)) | 3 (Herbicidal ratio of 40% or higher and lower than 70%) | 4 (Herbicidal ratio of 70% or higher and lower than 90%) | 
CON=C(C)CC1CC(OC(=O)C(C)(C)Oc2ccccc2)=C(c2c(C)cc(C)cc2C)C1=O (centres unmarked) [1-017] | 5 (Herbicidal ratio of 90% or more (almost completely withered)) | 4 (Herbicidal ratio of 70% or higher and lower than 90%) | 5 (Herbicidal ratio of 90% or more (almost completely withered)) | 5 (Herbicidal ratio of 90% or more (almost completely withered)) | 5 (Herbicidal ratio of 90% or more (almost completely withered)) | 5 (Herbicidal ratio of 90% or more (almost completely withered)) | 5 (Herbicidal ratio of 90% or more (almost completely withered)) | 2 (Herbicidal ratio of 20% or higher and lower than 40%) | 5 (Herbicidal ratio of 90% or more (almost completely withered)) | 2 (Herbicidal ratio of 20% or higher and lower than 40%) | 4 (Herbicidal ratio of 70% or higher and lower than 90%) | 4 (Herbicidal ratio of 70% or higher and lower than 90%) | 5 (Herbicidal ratio of 90% or more (almost completely withered)) | 5 (Herbicidal ratio of 90% or more (almost completely withered)) | 2 (Herbicidal ratio of 20% or higher and lower than 40%) | 4 (Herbicidal ratio of 70% or higher and lower than 90%) | 
C=CCON=C(C)CC1CC(O)=C(c2c(C)cc(C)cc2C)C1=O (centres unmarked) [1-018] | 5 (Herbicidal ratio of 90% or more (almost completely withered)) | 5 (Herbicidal ratio of 90% or more (almost completely withered)) | 5 (Herbicidal ratio of 90% or more (almost completely withered)) | 4 (Herbicidal ratio of 70% or higher and lower than 90%) | 5 (Herbicidal ratio of 90% or more (almost completely withered)) | 5 (Herbicidal ratio of 90% or more (almost completely withered)) | 2 (Herbicidal ratio of 20% or higher and lower than 40%) | 0 (Herbicidal ratio of 5% or lower (almost no effect)) | 5 (Herbicidal ratio of 90% or more (almost completely withered)) | 4 (Herbicidal ratio of 70% or higher and lower than 90%) | 4 (Herbicidal ratio of 70% or higher and lower than 90%) | 3 (Herbicidal ratio of 40% or higher and lower than 70%) | 5 (Herbicidal ratio of 90% or more (almost completely withered)) | 5 (Herbicidal ratio of 90% or more (almost completely withered)) | 4 (Herbicidal ratio of 70% or higher and lower than 90%) | 4 (Herbicidal ratio of 70% or higher and lower than 90%) | 
